This is an account of results in ChEMBL document CHEMBL1136163, “Conformationally-restricted analogues of efflux pump inhibitors that potentiate the activity of levofloxacin in Pseudomonas aeruginosa” (Bioorg Med Chem Lett, 2003).

For data set [1], the system named is Pseudomonas aeruginosa. As to the kind of experiment: In vitro minimum concentration of the efflux pump inhibitor required to inhibit the growth of PAM 1723 a strain of Pseudomonas aeruginosa. In kind it is functional.
Data set [2] deals with Pseudomonas aeruginosa. Nature of the data set: In vitro minimum concentration of the efflux pump inhibitor required to reduce (potentiate) the MIC of fuoroquinolone levofloxacin 8-fold (LVFX). Format: functional.
A short description of data set [3]: In vivo minimum lethal dose causing lethality to >/=66% of the mice tested i.v. Format: ADME, organism-based. Particulars: mouse, iv.
The nature of data set [4]: In vivo toxicity in mice i.v. In kind it is organism-based. Particulars: mouse, iv.
Data set [5] is described as follows: In vivo minimum lethal dose causing lethality to >/=66% of the mice tested i.p. Format: ADME, organism-based. Conditions: mouse, ip.
A short description of data set [6]: Clearance measured in rat. In kind it is ADME, organism-based. Conditions: in vivo, read-out: CLfree (converted).

Converted amounts (≈) assume the structure as drawn. Where a SMILES comes first, the peptide text is derived from it. The star is where a group is joined. βNA = c1ccc2cc(N*)ccc2c1

By MIC is commonly meant the least concentration at which growth counts as inhibited. A high value points to a need for much substance. In turn, `NC[C@@H]1CN[C@@H](C(=O)N[C@H](CCc2ccccc2)C(=O)Nc2cnc3ccccc3c2)C1` returned an MIC in data set [1] of more than 512 µg/mL. Also, the MPC in data set [2] worked out at 5 µg/mL. For the same molecule, in data set [3], the MLD amounted to 50 mg/kg.
As usually defined, the LD50 is the dose at which mortality reaches 50%. Higher therefore signals lower toxicity. In data set [1], `NCCC[C@@H](N)C(=O)N[C@H](CCc1ccccc1)C(=O)Nc1cnc2ccccc2c1` registered an MIC of more than 512 µg/mL. In data set [2], the MPC stood at 10 µg/mL. The molecule further had an LD50 in data set [4] of less than 25 mg/kg. In addition, the results for the MLD in data set [5] and in data set [3] were 200 mg/kg and less than 25 mg/kg, respectively. Further, the clearance in data set [6] was 28.3 mL/min/kg.
Consider `CN(C(=O)[C@@H](N)CCc1ccccc1)[C@@H](CCCN)CSc1nc2ccccc2s1`, for which the MIC in data set [1] was 128 µg/mL (≈ 289 µM). Also, the MPC in data set [2] is 5 µg/mL. In data set [3], this molecule returned an MLD of 25 mg/kg.
For `CC(C)(C)c1ccc2ncc(NC(=O)[C@H]3C[C@H](CN)CN3)cc2c1`, in that order: 128 µg/mL (≈ 392 µM), 5 µg/mL and more than 150 mg/kg.
`NC[C@@H]1CN[C@@H](C(=O)N[C@H](CCc2ccccc2)C(=O)Nc2ccc3ncccc3c2)C1` registered an MIC in data set [1] of more than 512 µg/mL. For the same molecule, the MPC in data set [2] stood at 10 µg/mL. The MLD in data set [3] is more than 100 mg/kg. The clearance in data set [6] is 48.3 mL/min/kg.
Molecule `NCCO[C@H]1CN[C@H](C(=O)N[C@H](CCc2ccccc2)C(=O)Nc2cnc3ccccc3c2)C1` returned an MIC in data set [1] of more than 512 µg/mL. Besides, the MPC in data set [2] stood at 10 µg/mL. The molecule also had an MLD in data set [3] of 70 mg/kg.
`C[C@H](N)C(=O)N[C@H](CCc1ccccc1)C(=O)Nc1cnc2ccccc2c1`: the MPC in data set [2] is more than 40 µg/mL. Further, the MLD in data set [3] amounted to 125 mg/kg.
The molecule `CN(C(=O)[C@@H](N)Cc1ccccc1)[C@@H](CCCN)C(=O)Nc1ccc2ccccc2c1` registered an MIC in data set [1] of 256 µg/mL (≈ 612 µM). Moreover, the MPC in data set [2] stood at 5 µg/mL. In data set [3], this molecule displayed an MLD of less than 25 mg/kg.
On to `CC(C)C[C@@H](NC(=O)[C@H](N)CCCN)C(=O)Nc1cnc2ccccc2c1`, for which the MPC in data set [2] was determined as 20 µg/mL. The MLD turned out to be 300 mg/kg in data set [5] and 50 mg/kg in data set [3].
`CC(C)(C)c1ccc2ncc(NC(=O)CNC(=O)[C@H](N)CCCN)cc2c1` registered an MIC in data set [1] of 64 µg/mL (≈ 172 µM). The MPC in data set [2] amounted to 5 µg/mL. Besides, the MLD in data set [3] came out at 35 mg/kg.
`C[C@H]1COc2c(N3CCN(C)CC3)c(F)cc3c(=O)c(C(=O)O)cn1c23.C[C@H]1COc2c(N3CCN(C)CC3)c(F)cc3c(=O)c(C(=O)O)cn1c23.O` [LEVOFLOXACIN] displayed an LD50 in data set [4] of more than 100 mg/kg. This molecule yielded an MLD in data set [3] of more than 100 mg/kg.
As for `N=C(N)NCCC[C@H](NC(=O)[C@@H](N)Cc1ccccc1)C(=O)Nc1ccc2ccccc2c1` [PABETAN] (H-Phe-Arg-βNA), the MIC in data set [1] is more than 512 µg/mL. For the same molecule, the MPC in data set [2] came out at 10 µg/mL. In data set [4], this molecule displayed an LD50 of less than 25 mg/kg. Moreover, in data set [3], the MLD is less than 25 mg/kg.
